Consider 2 compounds from patent US20070293398A1, “Method for Controlling Coniferous Plants” (BASF Aktiengesellschaft, priority 2004, published 2007).

The subject of assay [1] is pine species (loblolly pine). As to the kind of experiment: Field experiment Site 2: percent brownout of pine species following May application. To be noted: Site 2, May application, 0.840 kg a.i./ha, 1 WAT. Format: in vivo, Pinus taeda. Here is the method:
For the following experiment the phenyluracil of formula I and optionally the herbicide B were applied as an aqueous spray liquor. Phenyluracil I.1.4 (phenyluracil of formula I) was used as emulsifiable concentrate (0.120 kg a.i./L). Imazapyr (herbicide B) was used as an emulsifiable concentrate (26.7% by weight; Chopper®/BASF Corporation). Glyphosate (herbicide B) was used as a soluble concentrate (53.8% by weight; Accord® Concentrate/Dow AgroScience) Methylated seed oil (MSO) was also added to the spray liquor in amounts of 25.0% volume/volume as a standard spray adjuvant. Water was used as the carrier. Spray carrier volume was 65 L/ha.
The spray liquor had the following general recipe (based on a spray volume of 65 L/ha):
Herbicide treatments were applied in the spring using a pole sprayer with a single KLC-9 flood tip spraying from a height of 335 cm. This application technique was used to simulate operational aerial applications as closely as practical. Treatment plots were 9×18 m.
Woody vegetation was assessed at treatment and in the fall of the year of treatment and one year after treatment (one and two growing seasons after treatment). The most common woody species on the site at treatment included loblolly pine (Pinus taeda), southern red oak (Quercus falcata), water oak (Quercus nigra) and Vaccinium spp. […]

Assay [2] deals with wildling pine of the variety Loblolly (Pinus taeda). As to the kind of experiment: Field experiment Site 4: wildling Loblolly pine control, damage rating 0 to 100%. Format: in vivo. To be noted: field Site 4, combined with phenyluracil I.1.4. Here is the method:
The evaluation for the damage caused by the chemical compositions was carried out using a scale from 0 to 100%, compared to the untreated control plants. Here, 0 means no damage and 100 means complete destruction of the plants.

For the compound `CC(C)C1(C)N=C(c2ncccc2C(=O)O)NC1=O` (centres unmarked) [imazapyr], in assay [1], the “brownout of pine species” value is 2%. For the compound `COc1c(Cl)ccc(Cl)c1C(=O)O` [dicamba], in assay [2], the “effect of addition on control of wildling pine (in words)” value is on record as “improved the control”.
